Measurements as given in patent publication US10987319B2, “TFEB activator C1 ameliorates app and tau pathology and rescues cognitive deficits in neurodegenerative diseases” (Hong Kong Baptist University, priority 2018, dated 2021).

How the values were obtained:
Type in all cases: in vivo
5×FAD mice [1] = assay: Contextual fear conditioning
Experimental: (§1) Male 5×FAD mice were purchased from Jackson laboratories (Stock number 006554) and maintained at 23±2° C. temperature, 60±15% relative humidity with free access to food and water ad libitum. 5×FAD male mice were inbred with wild-type (WT, C57/BL6) female mice to produce heterozygous offspring. Offspring were genotyped to select 5×FAD (APP KM670/671NL (Swedish), APP I716V (Florida), APP V717I (London), PSEN1 M146L (A>C), PSEN1 L286V) gene mutations mice. Two months old WT and 5×FAD mice (male and female, n=10-14 per group) were treated daily with vehicle (1% sodium carbonyl methylcellulose [CMC-Na; Sigma-Aldrich, C5678]), curcumin analogue C1 (5 mg/kg, 10 mg/kg) or curcumin (50 mg/kg; Sigma-Aldrich, 08511) suspended in 1% CMC-Na by oral gavage for 4 months.
Contextual fear conditioning (CFC) was used to evaluate the fear memory reconsolidation of 5×FAD mice after treatment. The experiment was conducted 30 min after the drug treatment in ANY maze fear conditioning system under licensed ANY maze tracking system connected to a Windows XP computer. A digital camera was installed on each chamber and signals were sent to the computer for analysis. The experiments were conducted in two sound proof chambers. All the experiments were conducted with continuous 40 units of white noise and 40 lux white light. During training, mice were allowed to explore the platform for 2.5 min and then received 3 repeated footshock cycles (30 s) at 30 s intervals, each started with a cue tone (28 s, 1500 Hz) and ended by a footshock ([…], 2 s). On the second day the mice were allowed to explore the platform for 3 min followed by a cue tone (30 s, 1500 Hz) without footshock, and the freezing time was recorded. Contextual fear memory formation and the subsequent remote memory stabilization were evaluated by scoring freezing index (the absence of all but respiratory movement).

Aβ plaques = assay: Immunohistochemistry of Aβ plaques (4G8 antibody), 5×FAD mice
Experimental: as §1
Mice half brains were fixed with 4% paraformaldehyde in PBS overnight and dehydrated in 30% sucrose in PBS for at least 24 h. Brain sections (30 μm) were cut on a microtome and stored at 4° C. in PBS+0.1% sodium azide. Sections were permeabilized for 10 min with cold PBS containing 0.5% Triton X-100 and blocked with 3% bovine serum albumin for 1 h at room temperature. The sections were incubated with biotinylated 4G8 antibody (800701, Biolegend) overnight, and then incubated with Avidin-Biotin enzyme complex (Vecstatin-ELITE ABC-HRP kit) and Aβ plaques were visualized by DAB peroxidase and quantified using ImageJ software.

3×Tg mice = assay: Open-field test
Experimental: Homozygous 3×Tg mice (APP KM670/671NL (Swedish), MAPT P301L, PSEN1 M146V) were produced in Hong Kong Baptist University animal house and maintained at 23±2° C. temperature, 60±15% relative humidity with free access to food and water ad libitum. Seven months old WT (129/SvJ, n=6 for male mice; n=10 for female mice) and 3×Tg mice (n=6 for male mice; n=10 for female mice) were treated daily with vehicle (1% CMC-Na; Sigma-Aldrich, C5678]), curcumin analogue C1 (2.5 mg/kg, 5 mg/kg, 10 mg/kg) or curcumin (50 mg/kg; Sigma-Aldrich, 08511) suspended in 1% CMC-Na by oral gavage for 7 months. 3×Tg mice were treated with the indicated compounds for 7 months and then the open-field test was performed to evaluate the exploratory behavior in novel environment. The experiment was conducted 30 min after last dosing time. Mice placed in the center of an empty open field (25 cm×25 cm) were allowed to explore the environment for 5 min without any external disturbance. Ethnovision XT software was used to measure the patterns of movement, time spent in the center and margin, velocity, distance traveled as indicators of agility and exploration.

5×FAD mice [2] = assay: Long-term potentiation (TBS, MED64 multi-electrode array) in hippocampal slices of treated mice; conditions: female 5×FAD mice, 10 mg/kg oral 3 months, P<0.001
Experimental: Heterozygous male 5×FAD mice purchased from Jackson laboratory (#006554) were maintained HKBU animal house at 23±2 OC and 60-15% relative humidity with free access to feed and water ad libitum. Male 5×FAD mice were bred with female wild-type C57BL/6. The produced heterozygous litters were maintained until their age 2 months. At 2 months age tail sample is collected in Non-ionic detergent buffer (50 mM KCL, 10 mM Tris-HCL, 2.5 mM mgCl2, 0.1 mg/ml Gelatin, 0.45% v/v NP-40, 0.45% v/v Tween 20 and 100 μgm/ml Proteinase K). Tail samples were incubated in 55° C. for overnight and denatured at 95° C. for 5 mins. Denatured samples were centrifuged, and supernatant is used for genotyping. Mice tail samples were genotyped using standard PCR protocol by using GoTaq G2 Green Master Mix (M7822), for APP, Forward 5′-[…]-3′ (SEQ ID NO: 81) and reverse, 5′-CGGGGGTCTAGTTCTGCAT-3′ (SEQ ID NO: 82). […]
Brain slice preparation: Wild type and 5× mice treated with or without C1 were cervical dislocated and rapidly brain was removed and placed in oxygenated ice-cold sucrose buffer (213 mM sucrose, 10 mM D-glucose, 2.5 mM KCL, 1.25 mM KH2PO4, 2.5 mM CaCl2, 10 mM MgSO4.7H2O, 75 mM NaCl and […] NaHCO3). […] Slope of each Excitatory Post Synaptic Potential […] (fEPSP) is calculated by using MED64-Quad II system and Mobius MED 64 software.

COc1ccccc1/C=C/C(=O)/C=C/c1ccccc1OC [Compound C1, 1,5-bis(2-methoxyphenyl)penta-1,4-dien-3-one]
freezing index (memory reconsolidation) vs vehicle (5×FAD mice [1]; 10 mg/kg oral daily 4 months, P<0.001): significant memory reconsolidation | memory improvement compared with curcumin (5×FAD mice [1]; C1 10 mg/kg vs curcumin 50 mg/kg): better memory improvement than curcumin | Aβ plaque load in cortico-hippocampal sections (Aβ plaques; high dosage 10 mg/kg oral 4 months): significant reduction | Aβ plaque load in cortico-hippocampal sections (Aβ plaques; low dosage 5 mg/kg oral 4 months): significant reduction | time spent in the center vs vehicle (3×Tg mice; 3×Tg mice, 2.5, 5, 10 mg/kg oral 7 months): dose-dependently decreased | exploratory behavior (3×Tg mice; 3×Tg mice, high dose 10 mg/kg oral 7 months, P<0.001): almost recovered the exploratory behavior to the levels of WT mice | synaptic plasticity (long-term potentiation induced by TBS, fEPSP slope) vs vehicle (5×FAD mice [2]): significantly restored
